Results published in patent US7074743B1, “Herbicidal composition comprising 4-iodo-2-[3-(4-methoxy-6-methyl-1,3,5-triazin-2-yl)ureidosulfonyl]benzoic esters” (priority 1995, dated 2006).

Tests used:
Format in all cases: in vivo
Ambrosia elatior = test: Herbicidal action on AMBEL, visual scoring vs untreated, post-emergence 2-4 leaf stage; conditions: Table 12; 2.5 g of ai/ha
Experimental: (§1) The examples given below were performed in the greenhouse and, in some cases, in field trials.
(§2) The herbicides, or combinations, were applied in cereals after the weeds had emerged naturally using plot sprayers. After application, the results, such as damage to the crop plants and effect on broad-leaved weeds/grass weeds were assessed by means of visual scoring. The herbicidal action was assessed qualitatively and quantitatively by comparing untreated and treated plots on the basis of the effect on plant growth and the development of chloroses and necroses down to the complete destruction of the weeds (0–100%). The application was effected when the crop plants and weeds were in the 2–4 leaf stage. The test was evaluated approximately 4 weeks after application.
In the greenhouse experiments, the crop plants and broadleaved weeds/grass weeds were grown in No. 13 pots and treated in the 2–4 leaf stage. […]
In cases with less clear effects, the expected value was calculated using Colby's formula and compared with the empirically determined result. The calculated efficacy of a combination which is expected in theory is determined is using S.R. Colby's formula: “Calculation of synergistic and antagonistic responses of herbicide combinations”, Weeds 15 (1967), pages 20 to 22. […]

Viola arvensis = test: Herbicidal action on VIOAR, visual scoring vs untreated, post-emergence 2-4 leaf stage; conditions: Table 7
Experimental: as §1, §2
(§3) In the greenhouse experiments, the crop plants and broadleaved weeds/grass weeds were grown in No. 13 pots and treated in the 2–4 leaf stage. The pots were subsequently placed in the greenhouse under good growth conditions (temperature, atmospheric humidity, water supply).
(§4) The assessments were carried out similarly to those in the field trials, i.e. visual scoring of the treated plants in comparison with untreated control variants. These assessments were carried out 3 weeks after applying the test preparations and their combinations. The experiments had been set up in two replications.
(§5) To assess the combination effects, the activities of the individual components were added and compared with the activity of the mixtures in equal doses. It was frequently observed that the efficacies of the combinations exceeded the total of the individual activities.
(§6) In cases with less clear effects, the expected value was calculated using Colby's formula and compared with the empirically determined result. The calculated efficacy of a combination which is expected in theory is determined is using S.R. Colby's formula: “Calculation of synergistic and antagonistic responses of herbicide combinations”, Weeds 15 (1967), pages 20 to 22.
(§7) [formula] where • X=% damage caused by herbicide A at a rate of ×kg a.i./ha; • Y=% damage caused by herbicide B at a rate of y kg a.i./ha; • Z=% damage caused by a further herbicide C at a rate of z kg a.i./ha; • E=expected value, i.e. expected damage caused by herbicides A+B (or A+B+C) at x+y (or x+y+z) kg a.i./ha.
(§8) Synergistic effects were assumed to be when the empirical value exceeded the expected value. In the case of combinations with individual components with the same active substances, comparisons via the total formula were also possible.

Apera spica venti = test: Herbicidal action on APESV, visual scoring vs untreated, post-emergence 2-4 leaf stage; conditions: Table 1
Experimental: as §1, §2, §3, §4, §5, §6, §7, §8

Zea mays = test: Damage to crop plant ZEAMA, visual scoring vs untreated
Experimental: as §1, §2, §3, §4

Secale cereale = test: Damage to crop plant SECCW, visual scoring vs untreated
Experimental: as §1, §2, §3, §4

Echinochloa crus galli = test: Herbicidal action on ECHCR, visual scoring vs untreated, post-emergence 2-4 leaf stage
Experimental: as §1, §2, §3, §4, §5, §6, §7, §8

Gallium aparine = test: Herbicidal action on GALAP, visual scoring vs untreated, post-emergence 2-4 leaf stage
Experimental: as §1, §2, §3, §4, §5, §6, §7, §8

Mercurialis annua = test: Herbicidal action on MERAN, visual scoring vs untreated, post-emergence 2-4 leaf stage; conditions: Table 11
Experimental: as §1, §2, §3, §4, §5, §6, §7, §8

Phalaris canariensis = test: Herbicidal action on PHACA, visual scoring vs untreated, post-emergence 2-4 leaf stage (greenhouse / field trials); conditions: Table 1
Experimental: as §1, §2, §3, §4, §5, §6, §7, §8

## COC(=O)c1ccc(I)cc1S(=O)(=O)NC(=O)Nc1nc(C)nc(OC)n1.[Na] [A), sodium salt of methyl 4-iodo-2-[3-(4-methoxy-6-methyl-1,3,5-triazin-2-yl)ureidosulfonyl]benzoate]
Ambrosia elatior
  AMBEL % control: 88%
Viola arvensis; 2.5 g of a.i./ha
  VIOAR % control: 58%
Viola arvensis; 5 g of a.i./ha
  VIOAR % control: 75%
Viola arvensis; 10 g of a.i./ha
  VIOAR % control: 95%
Viola arvensis; 20 g of a.i./ha
  VIOAR % control: 98%
Apera spica venti; 3 g of a.i./ha
  APESV % control: 85%
Apera spica venti; 5 g of a.i./ha
  APESV % control: 93%
Apera spica venti; 10 g of a.i./ha
  APESV % control: 97%
Apera spica venti; 20 g of a.i./ha
  APESV % control: 98%
Zea mays; Table 4, 10 g of a.i./ha
  ZEAMA % damage: 0%
Zea mays; Table 4, 20 g of a.i./ha
  ZEAMA % damage: 0%
Zea mays; Table 4, 40 g of a.i./ha
  ZEAMA % damage: 0%
Zea mays; Table 4, 80 g of a.i./ha
  ZEAMA % damage: 0%
Zea mays; Table 8, 10 g of a.i./ha
  ZEAMA % damage: 0%
Zea mays; Table 8, 20 g of a.i./ha
  ZEAMA % damage: 0%
Zea mays; Table 8, 40 g of a.i./ha
  ZEAMA % damage: 0%
Zea mays; Table 8, 80 g of a.i./ha
  ZEAMA % damage: 0%
Zea mays; Table 12, 2.5 g of ai/ha
  ZEAMA % damage: 3%
Secale cereale; Table 6, 5 g of a.i./ha
  SECCW % damage: 0%
Secale cereale; Table 6, 10 g of a.i./ha
  SECCW % damage: 0%
Secale cereale; Table 6, 15 g of a.i./ha
  SECCW % damage: 5%
Secale cereale; Table 10, 5 g of a.i./ha
  SECCW % damage: 0%
Secale cereale; Table 10, 10 g of a.i./ha
  SECCW % damage: 0%
Secale cereale; Table 10, 15 g of a.i./ha
  SECCW % damage: 5%
Echinochloa crus galli; Table 4, 10 g of a.i./ha
  ECHCR % control: 65%
Echinochloa crus galli; Table 4, 20 g of a.i./ha
  ECHCR % control: 75%
Echinochloa crus galli; Table 4, 40 g of a.i./ha
  ECHCR % control: 80%
Echinochloa crus galli; Table 4, 80 g of a.i./ha
  ECHCR % control: 88%
Echinochloa crus galli; Table 8, 10 g of a.i./ha
  ECHCR % control: 65%
Echinochloa crus galli; Table 8, 20 g of a.i./ha
  ECHCR % control: 73%
Echinochloa crus galli; Table 8, 40 g of a.i./ha
  ECHCR % control: 80%
Echinochloa crus galli; Table 8, 80 g of a.i./ha
  ECHCR % control: 88%
Gallium aparine; Table 7, 2.5 g of a.i./ha
  GALAP % control: 35%
Gallium aparine; Table 7, 5 g of a.i./ha
  GALAP % control: 58%
Gallium aparine; Table 7, 10 g of a.i./ha
  GALAP % control: 60%
Gallium aparine; Table 7, 20 g of a.i./ha
  GALAP % control: 99%
Gallium aparine; Table 11, 5 g of a.i./ha
  GALAP % control: 75%
Gallium aparine; Table 11, 10 g of a.i./ha
  GALAP % control: 98%
Mercurialis annua; 5 g of a.i./ha
  MERAN % control: 70%
Mercurialis annua; 10 g of a.i./ha
  MERAN % control: 94%
Phalaris canariensis; 3 g of a.i./ha
  PHACA % control: 0%
Phalaris canariensis; 5 g of a.i./ha
  PHACA % control: 15%
Phalaris canariensis; 10 g of a.i./ha
  PHACA % control: 35%
Phalaris canariensis; 20 g of a.i./ha
  PHACA % control: 53%
